Experimental data reported in patent publication US8017786B2, “Substituted β-phenyl-α-hydroxy-propanoic acid, synthesis method and use thereof” (Northwest University, priority 2006, dated 2011).

Test system: Bax
Assay: Immunohistochemistry protein expression in I/R myocardial tissue: Bax
Type: in vivo, rat
Conditions: for Bax protein expression, OD value: 5 days, ischemia 30 min, reperfusion 2 h
Procedure: 52 SD rats having a body weight of 220±20 g were randomly divided into model control group, salviannic acid injection group (in 1 mL/kg), and group of bornyl β-(3,4-dihydroxylphenyl)-α-hydroxylpropionate ester at a small, middle and large dose (ip 5, 15, 35 mg/kg). The rats of the normal group and the model control group were ip administered with equal-volume of physiologic saline. The rats of all groups were administered for consecutive 5 days. When the rats were administered for the last time, they were simultaneously anesthetized with 1.5% pentobarbital sodium (ip 45 mg/kg), then a catheter was inserted into the right carotid artery, and connected via a transducer to an eight-channeled physiological recorder. Tracheal cannula was performed, and the ventilation rate was maintained at 60 times/min. The chest was opened, a 6/0 suture was used to form a loop at a site 1˜2 mm from the root of the anterior descending coronary artery, and a plastic pipe was introduced through the loop, then the loop was tightened up. The change of electrocardiogram was observed. An increase or decrease of ST indicated the success of ligation. The color of the myocardial tissue below the ligation suture became darker. 30 minutes later, the plastic pipe was pulled out to allow coronary artery blood flowing again and cause hyperemia of local tissue during reperfusion. For the groups subjected to ischemia for 30 min and reperfusion for 30 min, the myocardial infarction areas were recorded before the test, after ischemia for 1 min and 30 min, and after reperfusion for 30 min; for the groups subjected to ischemia for 30 min and reperfusion for 2 h, cardiac tissue samples were taken and fixed using 10% formalin, embedded with paraffin, serially sliced into sections with a thickness of 4 μm, and separately subjected to immunohistochemistry tests; the rats of the sham operation group were subjected only to the introduction of suture but their coronary arteries were not ligated.
Standard immunohistochemistry ABC and SP methods were employed for staining. Bax: anti-rabbit polyclonal antibody (Santa CruzBio. Inc.) at a dilution of 1:200; […]: anti-rabbit polyclonal antibody (TBD Tianjin Biotechnological Center). At a dilution of […]; caspase-3: anti-rabbit polyclonal antibody (Normarkers Fromont, Calif.), at a dilution of 1:200; MMP-2: anti-murine monoclonal antibody (NormarkersFromont, Calif.) at a dilution of 1:200; PPARγ: anti-caprine polyclonal antibody (Santa Cruz Bio. Inc.), at a dilution of 1:500. The specific procedures were performed in accordance with the instructions of the ABC and SP kits, DAB was used for color development, and neutral resin was used for mounting. PBS was used instead of the first antibody as a negative control. Cells with positive expression of the test polypeptides were of brown-yellow color, with MMP-2 protein being present in acytoplasm, Bcl-2 expressed in nuclear membrane and cytoplasm, Bax mainly in cytoplasm and partially in nucleus, and caspase-3 mainly in nucleus and partially in cytoplasm. CMIAS image analysis system was used for random selection of fields of slices and automatic selection of sites for analysis, and statistic analysis was performed by using mean optical density values or integral optical density values of the obtained myocardial tissue slices.

CC1(C)C2CCC1(C)C(OC(=O)C(O)Cc1ccc(O)c(O)c1)C2 (stereo not drawn) [bornyl salvianate ester, bornyl β-(3,4-dihydroxylphenyl)-α-hydroxylpropionate ester]
Bax protein expression, OD value (5 mg/kg ip): 0.12 ± 0.03
Bax protein expression, OD value (15 mg/kg ip): 0.09 ± 0.05
Bax protein expression, OD value (35 mg/kg ip): 0.07 ± 0.03
expression of Bax protein (in words) (myocardial cells I/R): reduce the expression of Bax and caspase-3 proteins
